Measurements from US11578343B2, “CAS9 proteins including ligand-dependent inteins” (President and Fellows of Harvard College, priority 2014, dated 2023).

Tests used:
Assay type in all cases: cell-based, human
[1] = system: EMX, VEGF, and CLTA genomic loci; test: High-throughput DNA sequencing of genome modifications, summary over on-target and off-target sites
Method: (§1) We assayed these Cas9:sgRNA combinations in human cells for their ability to modify the three on-target loci as well as 11 known off-target genomic sites (Table 3)^4,5,10,13. Cells were treated with or without 1 μM 4-HT during transfection, and after 12 h the media was replaced with fresh media lacking 4-HT. […] Genomic DNA was isolated 60 h post-transfection and analyzed by high-throughput DNA sequencing
(§2) High-throughput DNA sequencing of genome modifications. HEK293-GFP stable cells were transfected with plasmids expressing Cas9 (500 ng) and sgRNA (125 ng) as described above. […] 4-HT (1 μM final), where appropriate, was added during transfection. 12 h after transfection, the media was replaced with full serum media without 4-HT. Genomic DNA was isolated and pooled from three biological replicates 60 h after transfection using a previously reported^11 protocol with a DNAdvance Kit (Agencourt). 150 ng or 200 ng of genomic DNA was used as a template to amplify by PCR the on-target and off-target genomic sites with flanking HTS primer pairs described previously^11. PCR products were purified using RapidTips (Diffinity Genomics) and quantified using the PicoGreen dsDNA Assay Kit (Invitrogen). Purified DNA was PCR amplified with primers containing sequencing adaptors, purified with the MinElute PCR Purification Kit (Qiagen) and AMPure XP PCR Purification (Agencourt). Samples were sequenced on a MiSeq high-throughput DNA sequencer (Illumina), and sequencing data was analyzed as described previously^4.
(§3) Sensitivity limit of off-target cleavage assays. We used paired end sequencing to identify indels caused by genomic on- and off-target cleavage. […] A 1 ng sample of human gDNA represents only ˜330 unique genomes, and thus only ˜330 unique copies of each genomic site are present. PCR amplification for each genomic target was performed on a total of 150 ng or 200 ng of input gDNA, which provides amplicons derived from at most 50,000 or 65,000 unique gDNA copies, respectively. Therefore, the high-throughput sequencing assay cannot detect rare genome modification events that occur at a frequency of less than approximately 1 in 50,000 (0.002%). When comparing between two conditions, such as wt Cas9 vs. intein-Cas9, this threshold becomes approximately 10 in 50,000 (0.02%) when using the Fisher exact test and a conservative multiple comparison correction (Bonferroni with 14 samples). See also Minoche, A. E., Dohm, J. C., & Himmelbauer, H. Evaluation of genomic high-throughput sequencing data generated on Illumina HiSeq and Genome Analyzer systems. Genome Biology 12, R112 (2011).

VEGF On = test: High-throughput DNA sequencing of genome modifications; conditions: 500 ng Cas9 plasmid; for Mod. Freq (indels/total sequences), VEGF On: Table 4
Method: as §1, §2, §3

VEGF Off 1 = test: as above; conditions: 500 ng Cas9 plasmid; for Mod. Freq (indels/total sequences), VEGF Off 1: Table 4
Method: as §1, §2, §3

CLTA Off 1 = test: as above; conditions: 500 ng Cas9 plasmid; for Mod. Freq (indels/total sequences), CLTA Off 1: Table 4
Method: as §1, §2, §3

VEGF Off 3 = test: as above; conditions: 500 ng Cas9 plasmid; for Mod. Freq (indels/total sequences), VEGF Off 3: Table 4
Method: as §1, §2, §3

CLTA On = test: as above; conditions: 500 ng Cas9 plasmid; for Mod. Freq (indels/total sequences), CLTA On: Table 4
Method: as §1, §2, §3

EMX Off 2 = test: as above; conditions: 500 ng Cas9 plasmid; for Mod. Freq (indels/total sequences), EMX Off 2: Table 4
Method: as §1, §2, §3

EMX Off 1 = test: as above; conditions: 500 ng Cas9 plasmid; for Mod. Freq (indels/total sequences), EMX Off 1: Table 4
Method: as §1, §2, §3

VEGF Off 2 = test: as above; conditions: 500 ng Cas9 plasmid; for Mod. Freq (indels/total sequences), VEGF Off 2: Table 4
Method: as §1, §2, §3

EMX Off 4 = test: as above; conditions: 500 ng Cas9 plasmid; for Mod. Freq (indels/total sequences), EMX Off 4: Table 4
Method: as §1, §2, §3

EMX On = test: as above; conditions: 500 ng Cas9 plasmid; for Mod. Freq (indels/total sequences), EMX On: Table 4
Method: as §1, §2, §3

CLTA Off 2 = test: as above; conditions: 500 ng Cas9 plasmid; for Mod. Freq (indels/total sequences), CLTA Off 2: Table 4
Method: as §1, §2, §3

VEGF Off 4 = test: as above; conditions: 500 ng Cas9 plasmid; for Mod. Freq (indels/total sequences), VEGF Off 4: Table 4
Method: as §1, §2, §3

EMX Off 3 = test: as above; conditions: 500 ng Cas9 plasmid; for Mod. Freq (indels/total sequences), EMX Off 3: Table 4
Method: as §1, §2, §3

CLTA Off 3 = test: as above; conditions: 500 ng Cas9 plasmid; for Mod. Freq (indels/total sequences), CLTA Off 3: Table 4
Method: as §1, §2, §3

HEK293-GFP stable cells = test: Western blot analysis of intein splicing; conditions: FIG. 6
Method: FIGS. 6A-6B. […] 12 h after transfection, cells were treated with or without 4-HT (1 μM). Cells were lysed and pooled from three technical replicates 4, 8, 12, or 24 h after 4-HT treatment. An anti-FLAG antibody (Sigma-Aldrich F1804) and an anti-mouse 800CW IRDye (LI-COR) were used to visualize the gel. Lanes 1 and 2 contain purified dCas9-VP64-3×FLAG protein and lysate from untransfected HEK293 cells, respectively.
Western blot analysis of intein splicing. HEK293-GFP stable cells were transfected with 500 ng Cas9 expression plasmid and 125 ng sgRNA expression plasmid. 12 h after transfection, the media was replaced with full serum media, with or without 4-HT (1 μM). Cells were lysed and pooled from three technical replicates 4, 8, 12, or 24 h after 4-HT treatment. Samples were run on a Bolt 4-12% Bis-Tris gel (Life Technologies). An anti-FLAG antibody (Sigma-Aldrich F1804) and an anti-mouse 800CW IRDye (LI-COR) were used to visualize the gel on an Odyssey IR imager.

intein(Ser219)-Cas9: Cas9 with 37R3-2 intein replacing Ser219 (SEQ ID NO: 30)
Activity compared to wild-type Cas9 ([1]; absence of 4-HT): much less active
Activity compared to wild-type Cas9 ([1]; presence of 4-HT): slightly less active than wild-type Cas9
Mod. Freq (indels/total sequences), VEGF On (VEGF On; +4-HT (1 μM, 12 h)): 3.66%
Mod Freq (indels/total sequences), VEGF On (VEGF On; +4-HT, Table 6): 3.17%
Mod. Freq (indels/total sequences), VEGF On (VEGF On; −4-HT): 1.05%
Mod. Freq (indels/total sequences), VEGF Off 1 (VEGF Off 1; +4-HT (1 μM, 12 h)): 8.50%
Mod Freq (indels/total sequences), VEGF Off 1 (VEGF Off 1; +4-HT, Table 6): 4.61%
Mod. Freq (indels/total sequences), VEGF Off 1 (VEGF Off 1; −4-HT): 0.43%
Mod. Freq (indels/total sequences), CLTA Off 1 (CLTA Off 1; +4-HT (1 μM, 12 h)): 0.36%
Mod Freq (indels/total sequences), CLTA Off 1 (CLTA Off 1; +4-HT, Table 6): 0.23%
Mod. Freq (indels/total sequences), CLTA Off 1 (CLTA Off 1; −4-HT): 0.01%
Mod. Freq (indels/total sequences), VEGF Off 3 (VEGF Off 3; +4-HT (1 μM, 12 h)): 0.37%
Mod Freq (indels/total sequences), VEGF Off 3 (VEGF Off 3; +4-HT, Table 6): 0.16%
Mod. Freq (indels/total sequences), VEGF Off 3 (VEGF Off 3; −4-HT): 0.04%
Mod. Freq (indels/total sequences), CLTA On (CLTA On; +4-HT (1 μM, 12 h)): 14.48%
Mod Freq (indels/total sequences), CLTA On (CLTA On; +4-HT, Table 6): 9.13%
Mod. Freq (indels/total sequences), CLTA On (CLTA On; −4-HT): 4.30%
Mod. Freq (indels/total sequences), EMX Off 2 (EMX Off 2; +4-HT (1 μM, 12 h)): 0.04%
Mod Freq (indels/total sequences), EMX Off 2 (EMX Off 2; +4-HT, Table 6): 0.04%
Mod. Freq (indels/total sequences), EMX Off 2 (EMX Off 2; −4-HT): 0.02%
Mod. Freq (indels/total sequences), EMX Off 1 (EMX Off 1; +4-HT (1 μM, 12 h)): 0.42%
Mod Freq (indels/total sequences), EMX Off 1 (EMX Off 1; +4-HT, Table 6): 0.20%
Mod. Freq (indels/total sequences), EMX Off 1 (EMX Off 1; −4-HT): 0.01%
Mod. Freq (indels/total sequences), VEGF Off 2 (VEGF Off 2; +4-HT (1 μM, 12 h)): 1.49%
Mod Freq (indels/total sequences), VEGF Off 2 (VEGF Off 2; +4-HT, Table 6): 0.90%
Mod. Freq (indels/total sequences), VEGF Off 2 (VEGF Off 2; −4-HT): 0.08%
Mod. Freq (indels/total sequences), EMX Off 4 (EMX Off 4; +4-HT (1 μM, 12 h)): 3.16%
Mod Freq (indels/total sequences), EMX Off 4 (EMX Off 4; +4-HT, Table 6): 2.18%
Mod. Freq (indels/total sequences), EMX Off 4 (EMX Off 4; −4-HT): 0.19%
Mod. Freq (indels/total sequences), EMX On (EMX On; +4-HT (1 μM, 12 h)): 13.57%
Mod Freq (indels/total sequences), EMX On (EMX On; +4-HT, Table 6): 8.25%
Mod. Freq (indels/total sequences), EMX On (EMX On; −4-HT): 1.87%
Mod. Freq (indels/total sequences), CLTA Off 2 (CLTA Off 2; +4-HT (1 μM, 12 h)): 0.00%
Mod Freq (indels/total sequences), CLTA Off 2 (CLTA Off 2; +4-HT, Table 6): 0.00%
Mod. Freq (indels/total sequences), CLTA Off 2 (CLTA Off 2; −4-HT): 0.00%
Mod. Freq (indels/total sequences), VEGF Off 4 (VEGF Off 4; +4-HT (1 μM, 12 h)): 3.89%
Mod Freq (indels/total sequences), VEGF Off 4 (VEGF Off 4; +4-HT, Table 6): 2.03%
Mod. Freq (indels/total sequences), VEGF Off 4 (VEGF Off 4; −4-HT): 0.10%
Mod. Freq (indels/total sequences), EMX Off 3 (EMX Off 3; +4-HT (1 μM, 12 h)): 0.77%
Mod Freq (indels/total sequences), EMX Off 3 (EMX Off 3; +4-HT, Table 6): 0.54%
Mod. Freq (indels/total sequences), EMX Off 3 (EMX Off 3; −4-HT): 0.05%
Mod. Freq (indels/total sequences), CLTA Off 3 (CLTA Off 3; +4-HT (1 μM, 12 h)): 0.03%
Mod Freq (indels/total sequences), CLTA Off 3 (CLTA Off 3; +4-HT, Table 6): 0.01%
Mod. Freq (indels/total sequences), CLTA Off 3 (CLTA Off 3; −4-HT): 0.00%
Spliced product (Western blot) (HEK293-GFP stable cells; absence of 4-HT): no spliced product was detected
Spliced product (Western blot) (HEK293-GFP stable cells; earliest assayed time point (4 h) following 4-HT treatment (1 μM)): presence of spliced product
